Source: patent publication US4839350A, “Cephalosporin compounds and the production thereof” (Meiji Seika Kaisha, Ltd., priority 1984, dated 1989)

Assay: Recovery in urine after oral administration to mice (paper-disc assay)
Format: in vivo, mice of ICR-strain (male)
Details: 0.5 mg per mouse, suspension in 0.2% CMC, urine to 4 hours, molar % as free carboxylic acid form, average of three mice, E. coli K-12 8236 bioassay, read-out: Rate of recovery of the test compound in urine
Description: The new cephalosporin compound of this invention as orally administered is easily absorbed through the intestines by a living animal and maintains its antibacterial activity to a substantial extent in the body of the animal until it is excreted in the urine of the animal, and this may be observed by determining the remaining amount of the cephalosporin compound of this invention which can be recovered in the urine without receiving a substantial degradation of the compound in vivo. Some tests were made to evaluate the amount of the cephalosporin compound of this invention which can be recovered as the antibacterially active compound from the urine after it was orally given to mice.
To mice of ICR-strain (male, 4-weeks-aged, three in each group) was orally administered the compound under test identified below, at a dosage of the compound of 0.5 mg per mouse. The compound under test was given as a suspension of the test compound in a solution of 0.2% carboxymethylcellulose (CMC) in water. By the end of 4 hours after the administration of the test compound, all the amounts of the urine excreted by the treated mice were collected together, and the total quantity of the cephalosporin compound of this invention (as the free carboxylic acid form) in the urine was determined according to a paper-disc assay method using Escherichia coli K-12 8236 as the assaying strain. […]

CO/N=C(\C(=O)NC1C(=O)N2C(C(=O)OCOC(=O)C(C)(C)C)=C(/C=C\c3scnc3Cl)CSC12)c1csc(N)n1 (stereo not drawn) [Example 22, 7-[2-methoxyimino-2-(2-aminothiazol-4-yl)acetamido]-3-[2-(4-chlorothiazol-5-yl)vinyl]-3-cephem-4-carboxylic acid (syn-isomer, cis-isomer) pivaloyloxymethyl ester]
dose excreted at 4 h: 24%

CO/N=C(\C(=O)NC1C(=O)N2C(C(=O)OCOC(=O)C(C)(C)C)=C(/C=C\c3cncs3)CSC12)c1csc(N)n1 (stereo not drawn) [Example 38, 7-[2-methoxyimino-2-(2-aminothiazol-4-yl)acetamido]-3-[2-(thiazol-5-yl)vinyl]-3-cephem-4-carboxylic acid (syn-isomer, cis-isomer) pivaloyloxymethyl ester]
dose excreted at 4 h: 20%
